Laboratory results reported in PMC11945236 (Molecules, 2025).

Tests used:
SARS-CoV-2 M^pro = SARS-CoV-2 M^pro (Severe acute respiratory syndrome coronavirus 2, UniProt P0DTD1); test: biochemical; details: for inhibition at 10 µM: read-out: Enzymatic Inhibition Rate (%), primary screening, 10 μM, incubation for 5 min
adenovirus = details: concentrations from 0.0156 μM to 1 μM; cited from earlier work
[1] = system: SARS-CoV-2 N proteins in Vero E6 cells; test: Immunofluorescence assay for viral N proteins in infected Vero E6 cells; format: cell-based; details: 10 μM, 48 h
Experimental: Human Vero E6 cells were infected by live SARS-CoV-2 at an MOI value of 0.01. […] Then, cells in each group were collected and the immunofluorescence assay was used to detect the expression of viral N protein, and the result was analyzed by high-content screening.

[2] = MTT cytotoxicity assay, HFF-1 cells; format: cell-based; details: human
Experimental: (§1) The human HFF-1 and monkey Vero E6 cells were provided by Cell Bank in Shanghai, Chinese Academy of Sciences. HFF-1 cells were cultured in DMEM complete medium containing 15% FBS, 100 U/mL penicillin, and 100 μg/mL of streptomycin, while Vero E6 cells were maintained in DMEM complete medium containing 10% FBS. They were maintained at 37 °C in a humidified atmosphere with 5% CO2 (V/V).
(§2) The in vitro cytotoxicity of compounds was determined by the standard MTT assay according to our reported procedure. Briefly, well-cultured cells were seeded in 96-well plates at a density of 5 × 10^3 cells per well. After being cultured overnight in a 37 °C humidified incubator (5% CO2, V/V), cells were incubated with tested compounds for 48 h. Then, cells in each well were treated with MTT in PBS (5 mg/mL) for 4 h at 37 °C, and formazan crystals in viable cells were dissolved by dimethyl sulfoxide (150 μL) at ambient temperature. The absorbance of solubilized formazan was measured by the Synergy multimode reader (BioTek, Winooski, VT, American) at the wavelength of 490 nm.

[3] = MTT cytotoxicity assay, Vero E6 cells; format: cell-based; details: African green monkey
Experimental: as §1, §2

[4] = experimental value; cited from earlier work

For `COc1cc(C(CC=C(C)C)OCCC(C)C)c(OC)c2c1C(=O)C=CC2=O` (stereo not shown) [Compound 4, 6-(1-(Isopentyloxy)-4-methylpent-3-en-1-yl)-5,8-dimethoxy Naphthalene-1,4-dione], the inhibition at 10 µM (SARS-CoV-2 M^pro) was 10.6%.

For `COc1cc(C(CC=C(C)C)OCCC(C)C)c(OC)c2c1/C(=N/O)C=C/C2=N\O` (stereo not shown) [Compound 5, (1E,4E)-6-(1-(Isopentyloxy)-4-methylpent-3-en-1-yl)-5,8-dimethoxynaphthal-ene-1,4-dione Dioxime], the inhibition at 10 µM (SARS-CoV-2 M^pro) was about 36%.

In the case of `COc1cc(C(CC=C(C)C)OCCC(C)C)c(OC)c2c1/C(=N/OC(=O)c1ccccc1)C=C/C2=N\OC(=O)c1ccccc1` (stereo not shown) [Compound 6, (1E,4E)-6-(1-(Isopentyloxy)-4-methylpent-3-en-1-yl)-5,8-dimethoxynaphthalene-1,4-dione O,O-Dibenzoyl Dioxime], the “Enzymatic Inhibition Rate (%)” value (SARS-CoV-2 M^pro; primary screening, 10 μM, incubation for 5 min) is reported as “complete loss of activity” and the inhibition at 10 µM (SARS-CoV-2 M^pro) is reported as -6.9%.

Molecule `COc1cc(C(CC=C(C)C)OCCCCC(C)O)c(OC)c2c1/C(=N/O)C=C/C2=N\O` (stereo not shown) [Compound 9, (1E,4E)-6-(1-((5-Hydroxyhexyl)oxy)-4-methylpent-3-en-1-yl)-5,8-dimethoxy Naphthalene-1,4-dione Dioxime] has an inhibition at 10 µM (SARS-CoV-2 M^pro) of 10.7%.

Work on `COc1cc(C(CC=C(C)C)OCCCCCCCCO)c(OC)c2c1/C(=N/O)C=C/C2=N\O` (stereo not shown) [Compound 10, (1E,4E)-6-(1-((8-Hydroxyoctyl)oxy)-4-methylpent-3-en-1-yl)-5,8-dimethoxy Naphthalene-1,4-dione Dioxime] yielded an inhibition at 10 µM (SARS-CoV-2 M^pro) of 11.3%.

Molecule `COc1cc(C(CC=C(C)C)OC(=O)C=Cc2ccccc2)c(OC)c2c1/C(=N/O)C=C/C2=N\O` (stereo not shown) [Compound 12, 1-((5E,8E)-5,8-bis(Hydroxyimino)-1,4-dimethoxy-5,8-dihydronaphthalen-2-yl)-4-methylpent-3-en-1-yl Cinnamate] has an inhibition at 10 µM (SARS-CoV-2 M^pro) of 28%.

In the case of `COc1cc([C@@H](CC=C(C)C)OCCC(C)C)c(OC)c2c1/C(=N/O)C=C/C2=N\O` [Compound 14, (1E,4E)-6-((R)-1-(Isopentyloxy)-4-methylpent-3-en-1-yl)-5,8-dimethoxy Naphthalene-1,4-dione Dioxime], the IC50 (SARS-CoV-2 M^pro) is reported as 22.8 ± 4.61 µM.

In the case of `COc1cc([C@H](CC=C(C)C)OCCC(C)C)c(OC)c2c1/C(=N/O)C=C/C2=N\O` [Compound 15, (1E,4E)-6-((S)-1-(Isopentyloxy)-4-methylpent-3-en-1-yl)-5,8-dimethoxy Naphthalene-1,4-dione Dioxime], the IC50 (SARS-CoV-2 M^pro) is reported as 12.5 ± 3.59 µM.

In the case of `CC(C)=CC[C@@H](O)C1=CC(=O)c2c(O)ccc(O)c2C1=O` [Shikonin], the “inhibitory effects against adenovirus” value (adenovirus) is given as “showed inhibitory effects against adenovirus”, the “blue fluorescence (DAPI) from the live cell nucleus” value [1] is given as “almost invisible” and the “expression of viral N proteins versus untreated cells” value ([1]; MOI 0.01) is given as “significantly decreased expression of viral N proteins”. For the same molecule, the CC50 at 48 h [2] was 1.31 ± 0.09 µM, the inhibition at 10 µM (SARS-CoV-2 M^pro) was 51.4% and the CC50 at 48 h [3] was 1.48 ± 0.06 µM. The LogP [4] was 1.08.
